The target of this assay is T1, glucosylceramide synthase (Homo sapiens, UniProt Q16739).
T1 construct: made in house; host or cells: Expi293F cells (transient expression, pcDNA3.3-TOPO vector); microsome fraction used as enzyme source
T1 sequence (Q16739 1-394): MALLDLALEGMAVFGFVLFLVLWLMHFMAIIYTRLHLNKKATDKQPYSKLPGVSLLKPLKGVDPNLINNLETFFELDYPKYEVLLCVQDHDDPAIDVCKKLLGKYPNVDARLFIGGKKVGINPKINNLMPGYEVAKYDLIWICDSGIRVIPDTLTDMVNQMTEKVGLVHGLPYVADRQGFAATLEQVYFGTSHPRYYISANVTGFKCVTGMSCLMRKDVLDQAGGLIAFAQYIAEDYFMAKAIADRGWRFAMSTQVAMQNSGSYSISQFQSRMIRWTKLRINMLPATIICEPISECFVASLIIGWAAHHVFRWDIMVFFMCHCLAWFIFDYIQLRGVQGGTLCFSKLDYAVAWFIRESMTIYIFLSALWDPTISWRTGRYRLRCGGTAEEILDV
The assay is described as follows: Glucosylceramide synthase (GCS) enzyme assay, microsome fraction, C8 glucosylceramide quantified by Rapidfire MS/MS. The settings on record: test compound 10 μM; 1.7 μM UDP-glucose, 3 μM C8 ceramide; room temperature 60 min; read-out: GCS enzyme inhibitory rate at 10 μM (%) (% of control). The format is biochemical. The method, boiled down:
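Test compound, 10 μM final, was run against human GCS from transfected Expi293F microsome fractions, using substrate solution of 6 μM C8 ceramide (in DOPC liposomes) plus 3.4 μM UDP-glucose, pH 7.5 Tris buffer, 60 min, room temperature. Product C8 glucosylceramide measured by Rapidfire MS/MS against an internal standard, % inhibition referenced to no-enzyme and DMSO wells.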
Consider `COc1cc(C(=O)N2CCC2)ccc1-c1nccc2c1CN(c1ccc(F)cc1)C2=O` [Example 120, 4-[4-(azetidine-1-carbonyl)-2-methoxyphenyl]-2-(4-fluorophenyl)-2,3-dihydro-1H-pyrrolo[3,4-c]pyridin-1-one], for which the inhibition at 10 µM was determined as 61%.

Take `COc1cc(C(=O)N2CCC2)ccc1-c1nccc2c1CN(c1ccc(OC(F)F)cc1)C2=O` [Example 122, 4-[4-(azetidine-1-carbonyl)-2-methoxyphenyl]-2-[4-(difluoromethoxy)phenyl]-2,3-dihydro-1H-pyrrolo[3,4-c]pyridin-1-one]: the inhibition at 10 µM was found to be 95%. As for `COc1cc(C(=O)N2CCC2)ccc1-c1nccc2c1CN(c1ccc(OC(F)F)nc1)C2=O` [Example 123, 4-[4-(azetidine-1-carbonyl)-2-methoxyphenyl]-2-[6-(difluoromethoxy)pyridin-3-yl]-2,3-dihydro-1H-pyrrolo[3,4-c]pyridin-1-one], the figure is 85%; as for `O=C(c1ccc(-c2nccc3c2CN(c2ccc(OC(F)F)cc2)C3=O)c(OC(F)F)c1)N1CCC1` [Example 124, 4-[4-(azetidine-1-carbonyl)-2-(difluoromethoxy)phenyl]-2-[4-(difluoromethoxy)phenyl]-2,3-dihydro-1H-pyrrolo[3,4-c]pyridin-1-one], 98%; as for `O=C(c1ccc(-c2nccc3c2CN(c2ccc(OC(F)F)nc2)C3=O)c(OC(F)F)c1)N1CCC1` [Example 125, 4-[4-(azetidine-1-carbonyl)-2-(difluoromethoxy)phenyl]-2-[6-(difluoromethoxy)pyridin-3-yl]-2,3-dihydro-1H-pyrrolo[3,4-c]pyridin-1-one], 94%. As for `O=C1c2ccnc(-c3ccc(F)cc3OCC3COC3)c2CN1c1ccc(OC(F)F)cc1` [Example 126, 2-[4-(difluoromethoxy)phenyl]-4-{4-fluoro-2-[(oxetan-3-yl)methoxy]phenyl}-2,3-dihydro-1H-pyrrolo[3,4-c]pyridin-1-one], the figure is 97%. As for `O=C1c2ccnc(-c3ccc(F)cc3OCC3(F)COC3)c2CN1c1ccc(OC(F)F)cc1` [Example 127, 2-[4-(difluoromethoxy)phenyl]-4-{4-fluoro-2-[(3-fluorooxetan-3-yl)methoxy]phenyl}-2,3-dihydro-1H-pyrrolo[3,4-c]pyridin-1-one], the inhibition at 10 µM was 100%. Take `O=C1c2ccnc(-c3ccc(F)cc3OCC3(F)CC3)c2CN1c1ccc(OC(F)F)cc1` [Example 128, 2-[4-(difluoromethoxy)phenyl]-4-{4-fluoro-2-[(1-fluorocyclopropyl)methoxy]phenyl}-2,3-dihydro-1H-pyrrolo[3,4-c]pyridin-1-one]: the inhibition at 10 µM turned out to be 99%. As for `O=C1c2ccnc(-c3ccc(F)cc3OCC3CC3)c2CN1c1ccc(OC(F)F)cc1` [Example 129, 4-[2-(cyclopropylmethoxy)-4-fluorophenyl]-2-[4-(difluoromethoxy)phenyl]-2,3-dihydro-1H-pyrrolo[3,4-c]pyridin-1-one], the inhibition at 10 µM is 99%.

`O=C1c2ccnc(-c3ccc(F)cc3OCC(F)(F)F)c2CN1c1ccc(OCC(F)F)nc1` [Example 131, 2-[6-(2,2-difluoroethoxy)pyridin-3-yl]-4-[4-fluoro-2-(2,2,2-trifiuoroethoxy)phenyl]-2,3-dihydro-1H-pyrrolo[3,4-c]pyridin-1-one]: the inhibition at 10 µM stood at 87%. As for `O=C1c2ccnc(-c3ccc(F)cc3OCC(F)(F)F)c2CN1c1ccc(S(=O)(=O)C(F)F)cc1` [Example 139, 2-[4-(difluoromethanesulfonyl)phenyl]-4-[4-fluoro-2-(2,2,2-trifluoroethoxy)phenyl]-2,3-dihydro-1H-pyrrolo[3,4-c]pyridin-1-one], the figure is 96%; as for `CS(=O)(=O)c1ccc(N2Cc3ccnc(-c4ccc(F)cc4OCC(F)(F)F)c3C2)cc1` [Example 140, 4-[4-fluoro-2-(2,2,2-trifluoroethoxy)phenyl]-2-[4-(methanesulfonyl)phenyl]-2,3-dihydro-1H-pyrrolo[3,4-c]pyridine], 86%; as for `CN(C)C(=O)c1ccc(N2Cc3ccnc(-c4ccc(F)cc4OCC(F)(F)F)c3C2)cc1` [Example 141, 4-{4-[4-fluoro-2-(2,2,2-trifluoroethoxy)phenyl]-1,3-dihydro-2H-pyrrolo[3,4-c]pyridin-2-yl}-N,N-dimethylbenzamide], 90%. As for `COc1cccc(F)c1-c1nccc2c1CN(c1ccc(F)cc1)C2=O` [Example 142, 4-(2-fluoro-6-methoxyphenyl)-2-(4-fluorophenyl)-2,3-dihydro-1H-pyrrolo[3,4-c]pyridin-1-one], the figure is 77%; as for `O=C1C2=C(CN1c1ccc(F)cc1)C(c1ccc(F)cc1OCC(F)(F)F)=NCCN2` [Example 145, 7-(4-fluorophenyl)-5-[4-fluoro-2-(2,2,2-trifluoroethoxy)phenyl]-2,3,6,7-tetrahydropyrrolo[3,4-e][1,4]diazepin-8(1H)-one], 63%; as for `O=C1c2[nH]nc(-c3ccc(F)cc3OCC(F)(F)F)c2CN1c1ccc(F)cc1` [Example 146, 5-(4-fluorophenyl)-3-[4-fluoro-2-(2,2,2-trifluoroethoxy)phenyl]-4,5-dihydropyrrolo[3,4-c]pyrazol-6(1H)-one], 55%. As for `COCc1ccc(N2Cc3c(ccnc3-c3ccc(F)cc3OCC(F)(F)F)C2=O)cc1` [Example 147, 4-[4-fluoro-2-(2,2,2-trifluoroethoxy)phenyl]-2-[4-(methoxymethyl)phenyl]-2,3-dihydro-1H-pyrrolo[3,4-c]pyridin-1-one], the figure is 94%. Turning to `O=C1c2ccc(=O)n(-c3ccccc3OCC(F)(F)F)c2CN1c1ccc(OC(F)(F)F)cc1` [Example 149, 1-[2-(2,2,2-trifluoroethoxy)phenyl]-6-[4-(trifluoromethoxy)phenyl]-6,7-dihydro-1H-pyrrolo[3,4-b]pyridine-2,5-dione], the inhibition at 10 µM is 99%. As for `O=C1c2ccnc(-c3ccc(F)cc3OCC(F)(F)F)c2CN1c1cnc(OC(F)F)nc1` [Example 151, 2-[2-(difluoromethoxy)pyrimidin-5-yl]-4-[4-fluoro-2-(2,2,2-trifluoroethoxy)phenyl]-2,3-dihydro-1H-pyrrolo[3,4-c]pyridin-1-one], the figure is 94%; as for `O=C(c1ccc(N2Cc3c(ccnc3-c3ccc(F)cc3OCC(F)(F)F)C2=O)cc1)N1CCOCC1` [Example 152, 4-[4-fluoro-2-(2,2,2-trifluoroethoxy)phenyl]-2-[4-(morpholine-4-carbonyl)phenyl]-2,3-dihydro-1H-pyrrolo[3,4-c]pyridin-1-one], 90%. Regarding `O=C1c2ccnc(-c3ccc(F)cc3OCC(F)(F)F)c2CN1c1cnn(CC2CC2)c1` [Example 153, 2-[1-(cyclopropylmethyl)-1H-pyrazol-4-yl]-4-[4-fluoro-2-(2,2,2-trifluoroethoxy)phenyl]-2,3-dihydro-1H-pyrrolo[3,4-c]pyridin-1-one], the inhibition at 10 µM turned out to be 98%.

Take `COCCn1cc(N2Cc3c(ccnc3-c3ccc(F)cc3OCC(F)(F)F)C2=O)cn1` [Example 154, 4-[4-fluoro-2-(2,2,2-trifluoroethoxy)phenyl]-2-[1-(2-methoxyethyl)-1H-pyrazol-4-yl]-2,3-dihydro-1H-pyrrolo[3,4-c]pyridin-1-one]: the inhibition at 10 µM was 85%.

(Values after patent publication US12528802B2, “Heterocyclic compound” (Takeda Pharmaceutical Company Limited, priority 2019, dated 2026).)
